From paper PMC12655637, “Design, Synthesis, and Mechanistic Study of Novel Ciprofloxacin/Thiazole Chalcone Hybrids as Potential Anticancer Agents” (Pharmaceuticals, 2025)
“And” between values parts separate entries of the source, which are not always exact repeats. Equal values may be shown once.

Assays:
Breast Cancer cell lines = assay: NCI five-dose testing, subpanel (MID b, selectivity); conditions: for SI: full-panel MG-MID / subpanel MG-MID, Breast Cancer; for MG-MID: mean activity across subpanel Breast Cancer
From the text: (§1) The log10 GI50, log10 TGI, and log10 LC50 values were subsequently calculated as the averages of the log10 values of the respective individual GI50, TGI, and LC50 measurements. Negative numbers signified the most sensitive cell lines.
(§2) One way to measure a compound’s selectivity is to divide its subpanel MID^b (in μM) by the MID^a (in μM), which is the average sensitivity of all cell lines to the test agent.
(§3) At the National Cancer Institute (NCI) in Bethesda, USA, researchers examined the anticancer potential of the target compounds under investigation using nine panels of sixty different cell lines obtained from nine different cancers that were housed in the NCI library. Following the protocols laid out by the National Cancer Institute (https://dctd.cancer.gov/data-tools-biospecimens/data (accessed on 15 March 2023 and 6 January 2024)), the screening procedures were carried out [37]. The anticancer screening was carried out at a single dose of 10^−5 M; the results obtained were expressed as growth inhibition (%).
(§4) The anti-cancer potential of the tested compounds was evaluated at the National cancer institute (NCI), Bethesda, USA, against 9 panels of 60 various cell lines derived from nine human tumours available usually at NCI library. The procedures for the screening were described in details in NCI website (dttp://www.dtp.nci.nih.gov.) and were done according to NCI protocols. The anticancer screening was carried out at single dose of 10^-5 M. The results obtained as growth inhibition (%).
(§5) Cell lines were grown in Roswell Park Memorial Institute medium (RPMI) with 5% fetal bovine serum and 2% μM L-glutamine. Cancer cells are inoculated into 96 well microtiter plates in 100 μL at plating densities ranging from 5000 to 40,000 cells/well depending on the doubling time of individual cell lines. Then microtiter plates are incubated at 37 °C, 5% CO2, 95% air and 100% relative humidity for 24 h prior to the addition of the tested compounds. After 24 h, two plates of each cell line are fixed in situ with trichloroacetic acid (TCA). The tested compounds were dissolved in dimethyl sulfoxide (DMSO) and stored in the freezer prior to use. An aliquot of frozen drug concentrate is diluted to the desired concentration with complete medium containing 50 μg/mL gentamicin.
(§6) compounds were added to the microtiter plates followed by incubation for further 48 h at 37 °C, 5% CO2, 95% air and 100% relative humidity. Fixation of cancer cell lines is carried out through gentle addition of 50 μL of cold 50 %w/v TCA (final concentration, 10% TCA) then incubated for 60 min. at 4 °C. The plates are washed five times with tap water after getting rid of the supernatant and allowed to dry in air. Sulforhodamine B (SRB) solution (100 μL) at 0.4% w/v in 1% acetic

colon HCT116 cells = assay: Annexin V-FITC/PI apoptosis and necrosis assay; format: cell-based, human; conditions: HCT116 treated with IC50 concentration; for Apoptosis Late: DMSO 0.15%; for Apoptosis Early: DMSO 0.39%; for Apoptosis Total: DMSO 0.54%; for Necrosis: DMSO 1.83%
[1] = test system: Ovarian Cancer cell lines; assay: NCI five-dose testing, subpanel (MID b, selectivity); conditions: for SI: full-panel MG-MID / subpanel MG-MID, Ovarian Cancer; for MG-MID: mean activity across subpanel Ovarian Cancer
From the text: as §1, §2, §3, §4, §5, §6

Topoisomerase I = target: T1, Topoisomerase I (Homo sapiens, UniProt P11387); assay: Topoisomerase I inhibition assay (ELISA kit of human DNA topoisomerase); conditions: for TOPO I fld (fold of control): HCT116, control = 1; for Topoisomerase I % Inhibition: in comparison to negative control
T1 sequence (P11387 1-765): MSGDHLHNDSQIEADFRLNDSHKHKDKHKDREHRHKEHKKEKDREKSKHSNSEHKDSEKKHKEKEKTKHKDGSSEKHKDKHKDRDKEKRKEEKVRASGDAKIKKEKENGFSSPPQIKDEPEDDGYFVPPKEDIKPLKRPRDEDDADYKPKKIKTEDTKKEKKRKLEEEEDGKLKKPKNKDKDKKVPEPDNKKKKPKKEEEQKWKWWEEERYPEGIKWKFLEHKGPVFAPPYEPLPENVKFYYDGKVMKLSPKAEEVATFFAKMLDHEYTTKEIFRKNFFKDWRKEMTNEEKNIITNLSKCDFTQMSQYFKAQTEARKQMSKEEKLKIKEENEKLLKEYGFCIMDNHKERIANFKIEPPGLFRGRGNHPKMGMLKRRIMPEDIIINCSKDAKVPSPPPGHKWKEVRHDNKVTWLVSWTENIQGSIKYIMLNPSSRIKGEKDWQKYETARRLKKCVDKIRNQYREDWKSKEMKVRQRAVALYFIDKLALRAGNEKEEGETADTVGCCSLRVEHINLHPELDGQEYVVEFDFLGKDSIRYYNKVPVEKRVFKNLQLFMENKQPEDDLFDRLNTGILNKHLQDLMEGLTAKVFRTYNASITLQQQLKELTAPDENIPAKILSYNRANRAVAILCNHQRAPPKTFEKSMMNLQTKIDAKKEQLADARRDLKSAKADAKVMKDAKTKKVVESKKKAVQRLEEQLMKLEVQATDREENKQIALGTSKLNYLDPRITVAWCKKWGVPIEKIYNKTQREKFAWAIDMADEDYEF
Experimental: The assay was performed using a commercially available Topoisomerase I Drug Screening Kit (TopoGen, Inc., Cat. # TG1015-1, Buena Vista, CO, USA) according to the manufacturer’s instructions, with minor modifications.
Evaluation of Topoisomerase I/II inhibition
Two folds of serial dilution was accomplished after standards and the tested compounds were dissolved in sample diluent.
Horseradish peroxidase (HRP-avidin) and biotin-conjugated antibody were diluted 10 times each.
Each well received 100 μL of each concentration of the standard or test chemicals, which were then added and incubated at 37 °C for 60 min. After each well's liquid had been carefully removed,
incubated for 1 h at 37 °C. The microtiter plate was rinsed three times and given room to aspirate.
After that, the plate was incubated at 37 °C for 60 min with 100 μL of HRP-avidin solution added to each well. After that, the plate was aspirated and cleaned 5 times. Each well received 90 μL of TMB substrate, and the plate was incubated for 30 min. at 37 °C in a light-protected environment.
Finally, stop solution (50 μL) was loaded, and within 5 minutes, the absorbance at 450 nm was measured spectrophotometrically.

Colon Cancer cell lines = assay: NCI five-dose testing, subpanel (GI50 range, MID b, selectivity); conditions: for GI50: Homo sapiens; for SI: full-panel MG-MID / subpanel MG-MID, Colon Cancer; for MG-MID: mean activity across subpanel Colon Cancer
From the text: as §1, §2
(§7) At the National Cancer Institute (NCI) in Bethesda, USA, researchers examined the anticancer potential of the target compounds under investigation using nine panels of sixty different cell lines obtained from nine different cancers that were housed in the NCI library. […] The anticancer screening was carried out at a single dose of 10^−5 M; the results obtained were expressed as growth inhibition (%).
(§8) The anti-cancer potential of the tested compounds was evaluated at the National cancer institute (NCI), Bethesda, USA, against 9 panels of 60 various cell lines derived from nine human tumours available usually at NCI library. […] The anticancer screening was carried out at single dose of 10^-5 M. The results obtained as growth inhibition (%).
as §5, §6

topoisomerase IIβ = topoisomerase IIβ (Homo sapiens, UniProt Q02880); assay: Topoisomerase II inhibition assay (ELISA kit of human DNA topoisomerase); conditions: for TOPO II fld (fold of control): HCT116, control = 1; for Topoisomerase II % Inhibition: in comparison to negative control
[2] = test system: leukemia HL-60, RPMI-8226, and colon HCT-116 cells; assay: Antiproliferative activity, IC50 range over three cell lines; format: cell-based; conditions: Homo sapiens; range over HL-60, RPMI-8226 and HCT-116
[3] = test system: Non-Small-Cell Lung Cancer cell lines; assay: NCI five-dose testing, subpanel (MID b, selectivity); conditions: for SI: full-panel MG-MID / subpanel MG-MID, Non-Small-Cell Lung Cancer; for MG-MID: mean activity across subpanel Non-Small-Cell Lung Cancer
From the text: as §1, §2, §7, §8, §5, §6

CNS Cancer cell lines = assay: as above; conditions: for SI: full-panel MG-MID / subpanel MG-MID, CNS Cancer; for MG-MID: mean activity across subpanel CNS Cancer
From the text: as §1, §2, §7, §8, §5, §6

Renal Cancer cell lines = assay: as above; conditions: full-panel MG-MID / subpanel MG-MID
From the text: as §1, §2, §3
The anti-cancer potential of the tested compounds was evaluated at the National cancer institute (NCI), Bethesda, USA, against 9 panels of 60 various cell lines derived from nine human tumours available usually at NCI library. The procedures for the screening were described in details in NCI website (dttp://www.dtp.nci.nih.gov.) and were done according to NCI protocols. […]

[4] = test system: Prostate Cancer cell lines; assay: as above; conditions: for SI: full-panel MG-MID / subpanel MG-MID, PC (prostate); for MG-MID: mean activity across subpanel PC (prostate)
From the text: as §1, §2, §3, §4, §5, §6

[5] = test system: Leukemia cancer cell lines; assay: NCI five-dose testing, subpanel (GI50 range, MID b, selectivity); conditions: for GI50: Homo sapiens; for SI: full-panel MG-MID / subpanel MG-MID, Leukemia; for MG-MID: mean activity across subpanel Leukemia
From the text: as §1, §2, §7, §8, §5, §6

Melanoma cell lines = assay: NCI five-dose testing, subpanel (MID b, selectivity); conditions: for SI: full-panel MG-MID / subpanel MG-MID, Melanoma; for MG-MID: mean activity across subpanel Melanoma
From the text: as §1, §2, §7, §8, §5, §6

UO-31 = assay: NCI-60 screening, five-dose, SRB; format: cell-based, human; conditions: for GI50 / IC50 / LC50 (concentration killing 50% of cells): Homo sapiens
[6] = In vitro cytotoxicity against normal cell line WI 38; format: cell-based; conditions: human, WI-38 normal cell line; for viability at 0.4 µM: WI38, 0.4uM; for viability at 1.6 µM: WI38, 1.6uM; for viability at 6.3 µM: WI38, 6.3uM; for viability at 25 µM: WI38, 25uM; for viability at 100 µM: WI38, 100uM; for IC50: ± SEM
From the text: Detailed results of cytotoxicity of compounds 4b and 4d against normal cell
Blank CC Sample No. 4b/WI38 sample no. 4d/WI38
conc. viability conc. viability

[7] = test system: colon HCT116 cancer cell line; assay: Cell cycle analysis, propidium iodide flow cytometry; conditions: for Cell cycle arrest phase: HCT116; for DNA Content G2/M Phase / DNA Content S Phase / DNA Content G0-G1 Phase: HCT116 treated with IC50 concentration; for DNA Content G2/M Phase: DMSO 8.68%; for DNA Content S Phase: DMSO 27.03%; for DNA Content G0-G1 Phase: DMSO 64.29%
Experimental: The effect of compounds 4b and 4d on the cell cycle progression of the colon HCT-116 cell line was evaluated using a Propidium Iodide Flow Cytometry Kit to measure the DNA content, as per the reported protocols [39].
Cell cycle analysis and measurement of apoptotic potential
The effect of compound 4b and 4d on cell cycle progression of colon HCT-116 cell line was evaluated using Propidium Iodide Flow Cytometry Kit to measure the DNA content according to the reported protocols. The HCT116 cells used in this work were obtained from the American Type Culture Collection. Cells were cultured in DMEM (Invitrogen/Life Technologies) supplemented with 10% FBS (Hyclone), 10 µg/ml insulin (Sigma), and 1% penicillin-streptomycin. The remaining chemicals and reagents were all from Sigma or Invitrogen. Growth media was removed, cells washed with warm PBS and aspirated. Adhered cells were detached from media by addition of 5 ml 10% trypsin/EDTA and incubated 2 minutes in the incubator. The suspended cells harvested, aspirated to a falcon tube, centrifuged at 2000 rpm for 5 minutes. Cell count performed after suspending the cells into a fresh media and stained with trypan blue, counted and used for preparation of the appropriate number of cells.

caspase-9 = assay: Relative gene expression by qRT-PCR in HCT-116; format: cell-based, human; conditions: HCT116; untreated control = 1
Bax = assay: Relative gene expression by qRT-PCR in HCT-116; format: cell-based, human; conditions: HCT116; untreated control = 1
caspase-3 = assay: Relative gene expression by qRT-PCR in HCT-116; format: cell-based, human; conditions: HCT116; untreated control = 1

Chain of topoisomerase IIβ (Q02880 2-1626): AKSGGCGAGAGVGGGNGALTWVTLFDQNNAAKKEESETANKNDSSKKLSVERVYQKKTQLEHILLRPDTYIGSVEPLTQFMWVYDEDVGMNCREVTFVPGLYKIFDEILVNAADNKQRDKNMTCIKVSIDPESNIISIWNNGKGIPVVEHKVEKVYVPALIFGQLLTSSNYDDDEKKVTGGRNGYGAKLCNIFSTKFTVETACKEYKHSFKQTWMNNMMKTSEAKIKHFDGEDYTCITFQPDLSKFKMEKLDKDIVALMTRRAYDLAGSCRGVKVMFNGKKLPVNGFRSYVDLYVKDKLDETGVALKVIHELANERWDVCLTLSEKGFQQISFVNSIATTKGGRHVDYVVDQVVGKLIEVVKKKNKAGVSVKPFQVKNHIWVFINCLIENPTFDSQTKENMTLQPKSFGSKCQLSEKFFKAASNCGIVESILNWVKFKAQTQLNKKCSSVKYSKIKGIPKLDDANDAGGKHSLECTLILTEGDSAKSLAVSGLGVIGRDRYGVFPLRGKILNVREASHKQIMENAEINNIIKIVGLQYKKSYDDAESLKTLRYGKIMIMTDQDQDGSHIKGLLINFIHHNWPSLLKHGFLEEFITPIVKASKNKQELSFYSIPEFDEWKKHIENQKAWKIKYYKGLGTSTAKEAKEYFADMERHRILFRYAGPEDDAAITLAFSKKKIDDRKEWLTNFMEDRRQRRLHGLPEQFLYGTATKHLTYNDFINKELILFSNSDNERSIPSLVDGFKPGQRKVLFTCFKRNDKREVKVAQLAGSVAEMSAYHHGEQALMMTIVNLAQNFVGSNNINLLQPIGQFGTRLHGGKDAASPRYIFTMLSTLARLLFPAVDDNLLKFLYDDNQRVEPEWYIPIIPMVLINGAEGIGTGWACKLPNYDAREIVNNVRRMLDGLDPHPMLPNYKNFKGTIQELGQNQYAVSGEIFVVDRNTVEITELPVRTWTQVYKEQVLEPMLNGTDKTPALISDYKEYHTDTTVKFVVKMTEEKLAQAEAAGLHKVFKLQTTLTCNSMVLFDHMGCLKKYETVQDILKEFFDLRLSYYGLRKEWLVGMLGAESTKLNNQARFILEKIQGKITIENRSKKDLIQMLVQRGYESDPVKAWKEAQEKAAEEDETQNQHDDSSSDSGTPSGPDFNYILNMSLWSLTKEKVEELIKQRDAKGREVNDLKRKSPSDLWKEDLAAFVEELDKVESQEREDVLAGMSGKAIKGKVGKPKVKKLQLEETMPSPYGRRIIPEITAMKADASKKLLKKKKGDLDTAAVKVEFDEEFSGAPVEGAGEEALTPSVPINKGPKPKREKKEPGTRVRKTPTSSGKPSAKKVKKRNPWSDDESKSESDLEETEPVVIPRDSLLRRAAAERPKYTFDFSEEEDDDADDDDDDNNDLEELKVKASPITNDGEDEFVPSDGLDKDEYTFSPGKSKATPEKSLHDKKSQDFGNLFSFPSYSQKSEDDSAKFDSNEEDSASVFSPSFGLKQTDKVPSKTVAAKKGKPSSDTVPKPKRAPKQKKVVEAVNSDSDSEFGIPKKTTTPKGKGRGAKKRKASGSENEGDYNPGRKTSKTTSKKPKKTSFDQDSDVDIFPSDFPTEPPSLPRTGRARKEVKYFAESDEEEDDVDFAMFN

Structure (SMILES): Cc1nc(SCC(=O)N2CCN(c3cc4c(cc3F)c(=O)c(C(=O)O)cn4C3CC3)CC2)sc1C(=O)/C=C/c1cccc(Cl)c1 [Compound 4b, (E)-7-(4-(2-((5-(3-(3-Chlorophenyl)acryloyl)-4-methylthiazol-2-yl)thio)acetyl)piperazin-1-yl)-1-cyclopropyl-6-fluoro-4-oxo-1,4-dihydroquinoline-3-carboxylic Acid]
- SI (Breast Cancer cell lines): 1.04
- MG-MID (Breast Cancer cell lines): 67.8 µM
- Apoptosis Late (colon HCT116 cells): 22.37%
- Apoptosis Early (colon HCT116 cells): 6.96%
- Apoptosis Total (colon HCT116 cells): 29.33%
- Necrosis (colon HCT116 cells): 3.66%
- SI [1]: 0.77
- MG-MID [1]: 91.67 µM
- TOPO I fld (fold of control) (Topoisomerase I): 0.227
- Topoisomerase I % Inhibition (Topoisomerase I): 77.3%
- GI50 (Colon Cancer cell lines): 0.3 to 15.1 µM
- SI (Colon Cancer cell lines): 2.18
- MG-MID (Colon Cancer cell lines): 32.16 µM
- TOPO II fld (fold of control) (topoisomerase IIβ): 0.266
- Topoisomerase II % Inhibition (topoisomerase IIβ): 73.4%
- IC50 [2]: 0.3 to 3.7 µM
- SI [3]: 0.73
- MG-MID [3]: 96.35 µM
- SI (CNS Cancer cell lines): 1.01
- MG-MID (CNS Cancer cell lines): 69.63 µM
- SI (Renal Cancer cell lines): 1.5
- SI [4]: 0.70
- MG-MID [4]: 100.0 µM
- GI50 [5]: 0.2 to 12.9 µM
- SI [5]: 9.22
- MG-MID [5]: 7.62 µM
- SI (Melanoma cell lines): 0.95
- MG-MID (Melanoma cell lines): 74.08 µM
- TGI (UO-31): 100.0 µM
- GI50 (UO-31): > 100 µM
- IC50 (UO-31): > 100 µM
- LC50 (concentration killing 50% of cells) (UO-31): > 100 µM
- viability at 0.4 µM [6]: 82.8%
- viability at 1.6 µM [6]: 71.8%
- viability at 6.3 µM [6]: 63.5%
- viability at 25 µM [6]: 52.9%
- viability at 100 µM [6]: 37.1%
- IC50 [6]: 26.8 ± 0.92 µM
- Cell cycle arrest phase [7]: G1 phase
- DNA Content G2/M Phase [7]: 2.92%
- DNA Content S Phase [7]: 23.23%
- DNA Content G0-G1 Phase [7]: 73.85%

Structure (SMILES): Cc1nc(SCC(=O)N2CCN(c3cc4c(cc3F)c(=O)c(C(=O)O)cn4C3CC3)CC2)sc1C(=O)/C=C/c1cccc(F)c1 [Compound 4d, (E)-1-Cyclopropyl-6-fluoro-7-(4-(2-((5-(3-(3-fluorophenyl)acryloyl)-4-methylthiazol-2-yl)thio)acetyl)piperazin-1-yl)-4-oxo-1,4-dihydroquinoline-3-carboxylic Acid]
- Relative gene expression of caspase-9 (caspase-9): 4.2 fold and 4.214 fold
- SI (Breast Cancer cell lines): 0.99
- MG-MID (Breast Cancer cell lines): 71.1 µM
- Apoptosis Late (colon HCT116 cells): 26.29%
- Apoptosis Early (colon HCT116 cells): 11.92%
- Apoptosis Total (colon HCT116 cells): 38.21%
- Necrosis (colon HCT116 cells): 3.82%
- SI [1]: 0.70
- MG-MID [1]: 100 µM
- TOPO I fld (fold of control) (Topoisomerase I): 0.277
- Topoisomerase I % Inhibition (Topoisomerase I): 72.3%
- GI50 (Colon Cancer cell lines): 0.52 to 4.9 µM
- SI (Colon Cancer cell lines): 2.8
- MG-MID (Colon Cancer cell lines): 25.3 µM
- TOPO II fld (fold of control) (topoisomerase IIβ): 0.481
- Topoisomerase II % Inhibition (topoisomerase IIβ): 51.9%
- Relative gene expression of Bax (Bax): 5.58 fold and 5.577 fold
- IC50 [2]: 0.3 to 3.7 µM
- SI [3]: 0.81
- MG-MID [3]: 86.5 µM
- SI (CNS Cancer cell lines): 0.97
- MG-MID (CNS Cancer cell lines): 72.0 µM
- SI (Renal Cancer cell lines): 1.5
- Relative gene expression of caspase-3 (caspase-3): 10.86 fold
- SI [4]: 0.70
- MG-MID [4]: 100.0 µM
- GI50 [5]: 0.19 to 3.39 µM
- SI [5]: 24.6
- MG-MID [5]: 2.9 µM
- SI (Melanoma cell lines): 0.89
- MG-MID (Melanoma cell lines): 79.00 µM
- TGI (UO-31): 100.0 µM
- GI50 (UO-31): > 100 µM
- IC50 (UO-31): > 100 µM
- LC50 (concentration killing 50% of cells) (UO-31): > 100 µM
- viability at 0.4 µM [6]: 83.4%
- viability at 1.6 µM [6]: 72.8%
- viability at 6.3 µM [6]: 64.1%
- viability at 25 µM [6]: 52.9%
- viability at 100 µM [6]: 44%
- IC50 [6]: 41.2 ± 1.42 µM
- Cell cycle arrest phase [7]: G1 phase
- DNA Content G2/M Phase [7]: 3.75%
- DNA Content S Phase [7]: 18.33%
- DNA Content G0-G1 Phase [7]: 77.92%
